Measured values reported in PubChem BioAssay AID743299 (The Scripps Research Institute Molecular Screening Center, 2014).
pIC50: −log10 of the molar value.

Molecular target: methionyl-tRNA synthetase (Trypanosoma brucei brucei)
Assay: inhibition of trypanosomal methionyl-tRNA synthetase – biochemical, fluorescence polarization, dose response, round 2, orthogonal assay for T. brucei MetRS inhibitor project, late-stage follow-up (AID 743299)
Conditions: recombinant T. brucei MetRS

**Q.** How did the pIC50 turn out when `CCN(CC)C(=O)C(=O)c1cn(CC(=O)Nc2cccc(C(F)(F)F)c2)c2ccccc12` was run?
**A.** The pIC50 was 6.74.
